Assay results from article PMC7554145 (Journal of medicinal chemistry, 2020).
Values after ≈ are worked out from the molar mass of the structure shown. “Also recorded” adds a separate entry of the source. Where two headings read alike, the source gives them in different places.

Assays:
[1] = tested on: cancer and healthy cell lines; assay: Cytotoxicity across cell-line panel; format: cell-based
[2] = tested on: Myocobacterium tuberculosis H37Rv, Mycobacterium avium 2285, Mycobacterium smegmatis (ATCC607); assay: Antimycobacterial activity; format: cell-based, Mycobacterium spp.
DPAGT1 [3] = conditions: cited from earlier work
[4] = tested on: normal cells / cancer cells; conditions: selected solid cancer cell lines; ref [10]; cited from earlier work
[5] = cited from earlier work
HPNE = assay: MTT cytotoxicity assay, HPNE; format: cell-based; conditions: read-out: IC50 HPNE
[6] = tested on: MraY, WecA, AglH, and DPAGT1; assay: Phosphotransferase panel; format: biochemical; conditions: at 50 μM concentration
PD002 [7] = assay: Checkerboard synergy of CPPB with paclitaxel; format: cell-based, human; conditions: for CA and CB, concentration in combination: growth–no growth interface
E-Cadherin = E-Cadherin expression; format: cell-based
DPAGT1 (Human) = DPAGT1 (Human) (Homo sapiens, UniProt Q9H3H5); assay: DPAGT1 assay; format: biochemical
Sequence of DPAGT1 (Human) (Q9H3H5 whole entry): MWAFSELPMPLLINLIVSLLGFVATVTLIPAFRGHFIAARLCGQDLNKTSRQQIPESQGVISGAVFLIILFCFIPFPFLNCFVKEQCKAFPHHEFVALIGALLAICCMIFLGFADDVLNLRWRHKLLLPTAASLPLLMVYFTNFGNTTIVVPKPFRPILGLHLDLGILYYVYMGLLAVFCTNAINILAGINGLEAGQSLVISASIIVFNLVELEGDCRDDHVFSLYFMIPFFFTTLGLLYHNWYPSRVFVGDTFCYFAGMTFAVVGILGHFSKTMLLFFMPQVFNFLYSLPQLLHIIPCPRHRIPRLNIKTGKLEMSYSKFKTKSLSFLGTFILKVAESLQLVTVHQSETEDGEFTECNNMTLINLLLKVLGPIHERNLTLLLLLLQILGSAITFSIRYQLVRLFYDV

PD002 [8] = assay: Cell migration assay using transwell; format: cell-based, human; conditions: 0.1 μM, 18h; vs tunicamycin and gemcitabine at 0.1 μM
PD002 [9] = assay: Scratch; format: cell-based, human; conditions: PD002, 24h, 0.2 μM; untreated 63%
PD002 [10] = assay: Kinetic proliferation assay; format: cell-based, human
SiHa [11] = assay: Scratch; format: cell-based, human; conditions: scratch assay, 0.2 μM
Snail = Snail expression; format: cell-based; conditions: 0.05 and 2.0 μM
DPAGT1 [12] = assay: DPAGT1 protein expression; format: cell-based
HCT-116 [13] = assay: Scratch; format: cell-based; conditions: scratch assay
MraY/MurX = conditions: cited from earlier work
PD002 [14] = assay: MTT cytotoxicity assay, PD002; format: cell-based, human; conditions: read-out: IC50 PD002
HCT-116 [15] = assay: MTT cytotoxicity assay, HCT-116; format: cell-based; conditions: read-out: IC50 HCT-116, 72h
WecA (E. coli) = WecA (E. coli) (Escherichia coli, UniProt P0AC78); assay: WecA assay; conditions: read-out: IC50 WecA (E. coli)
Sequence of WecA (E. coli) (P0AC78 whole entry): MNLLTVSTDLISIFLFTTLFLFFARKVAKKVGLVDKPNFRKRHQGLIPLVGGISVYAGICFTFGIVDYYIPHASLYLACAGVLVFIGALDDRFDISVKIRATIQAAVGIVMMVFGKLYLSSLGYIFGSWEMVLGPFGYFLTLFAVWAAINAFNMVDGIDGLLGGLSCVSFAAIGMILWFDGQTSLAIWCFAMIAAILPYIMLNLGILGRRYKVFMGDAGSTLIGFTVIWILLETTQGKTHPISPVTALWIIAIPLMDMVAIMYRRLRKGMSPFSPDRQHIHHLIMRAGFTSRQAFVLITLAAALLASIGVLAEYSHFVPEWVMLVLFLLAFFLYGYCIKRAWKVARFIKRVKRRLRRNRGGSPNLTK

Capan-1 = assay: MTT cytotoxicity assay, Capan-1; format: cell-based, human; conditions: read-out: IC50 Capan-1, 72h
KB = assay: MTT cytotoxicity assay, KB; format: cell-based, human; conditions: read-out: IC50 KB, 72h
AsPC-1 = assay: MTT cytotoxicity assay, AsPC-1; format: cell-based, human; conditions: read-out: IC50 AsPC-1, 72h
WecA = conditions: read-out: IC50 WecA; ref [9],[10]; cited from earlier work
DLD-1 = assay: MTT cytotoxicity assay, DLD-1; format: cell-based; conditions: read-out: IC50 DLD-1, 72h
L1210 = assay: MTT cytotoxicity assay, L1210; format: cell-based, mouse; conditions: read-out: IC50 L1210, 72h
Vero = assay: MTT cytotoxicity assay, Vero; format: cell-based, Cercopithecus aethiops; conditions: read-out: IC50 Vero, 72h, normal kidney cell
SiHa [16] = assay: MTT cytotoxicity assay, SiHa; format: cell-based, human; conditions: read-out: IC50 SiHa, 72h
DPAGT1 gene = assay: RT-qPCR of DPAGT1 gene expression in PD002; format: cell-based, human; conditions: 10 μM, 24h at 37 °C
[17] = biological target: MraY (Hydrogenivirga sp.) (Hydrogenivirga sp. 128-5-R1-1, UniProt Z9Y2G8N0L0); assay: MraY assay; format: biochemical; conditions: read-out: IC50 MraY (Hydrogenivirga sp.)
Sequence of MraY (Hydrogenivirga sp.) (Z9Y2G8N0L0 7-365 limits assumed): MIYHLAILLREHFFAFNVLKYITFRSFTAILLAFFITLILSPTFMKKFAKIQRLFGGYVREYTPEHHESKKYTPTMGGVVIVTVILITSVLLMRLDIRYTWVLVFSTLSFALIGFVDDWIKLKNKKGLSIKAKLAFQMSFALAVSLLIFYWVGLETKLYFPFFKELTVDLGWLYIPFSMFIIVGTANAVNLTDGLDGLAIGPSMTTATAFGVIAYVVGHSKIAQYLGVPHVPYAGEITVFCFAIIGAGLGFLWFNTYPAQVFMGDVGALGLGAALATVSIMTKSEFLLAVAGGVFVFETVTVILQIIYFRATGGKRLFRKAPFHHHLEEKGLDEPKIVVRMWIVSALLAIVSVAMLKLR

AglH (M. jannaschii) = AglH (M. jannaschii) (Methanocaldococcus jannaschii, UniProt Q58513); assay: AglH assay; format: biochemical; conditions: read-out: IC50 AglH (M. jannaschii)
Sequence of AglH (M. jannaschii) (Q58513 whole entry): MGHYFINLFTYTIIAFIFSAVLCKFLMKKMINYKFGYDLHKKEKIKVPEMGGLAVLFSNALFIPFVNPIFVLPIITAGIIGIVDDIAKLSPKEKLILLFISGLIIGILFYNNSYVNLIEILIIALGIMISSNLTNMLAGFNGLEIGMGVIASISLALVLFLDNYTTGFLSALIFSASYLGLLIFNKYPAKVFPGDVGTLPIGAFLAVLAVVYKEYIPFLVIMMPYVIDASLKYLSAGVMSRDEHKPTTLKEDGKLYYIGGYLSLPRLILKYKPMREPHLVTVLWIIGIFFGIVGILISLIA

PANC-1 = assay: MTT cytotoxicity assay, PANC-1; format: cell-based, human; conditions: read-out: IC50 PANC-1, 72h

CO[C@@H]1[C@H](O)[C@@H]([C@@H](O[C@H]2OC(C(=O)NCc3ccc(N4CCC(Oc5ccc(OC(F)(F)F)cc5)CC4)cc3)=C[C@H](O)[C@@H]2O)C(N)=O)O[C@H]1n1ccc(=O)[nH]c1=O
antiproliferative activity against L1210, HPNE, and Vero ([1]; at 50 μM): did not show antiproliferative activity
growth inhibitory activity against Mycobacterium spp. ([2]; at 50 μg/mL): did not show growth inhibitory activity

NC[C@H]1O[C@@H](O[C@H]([C@H]2O[C@@H](n3ccc(=O)[nH]c3=O)[C@H](O)[C@@H]2O)[C@H](NCCCC(=O)NCc2ccc(N3CCC(Oc4ccc(OC(F)(F)F)cc4)CC3)cc2)C(N)=O)[C@H](O)[C@@H]1O [APPB, Aminouridyl phenoxylpiperidinylbenzylbutanamide]
DPAGT1 inhibitory activity relative to tunicamycin (DPAGT1 [3]; ref [10]): greater than 30 times
selective cytotoxicity (IC50 normal cells / cancer cells) [4]: > 35
LD50 ([5]; mouse, ref [10],[18]): > 20 mg/kg

CO[C@H]1[C@@H](O)[C@H](n2ccc(=O)[nH]c2=O)O[C@@H]1[C@@H](O[C@H]1OC(C(=O)N[C@H]2CCCCNC2=O)=C[C@H](O)[C@@H]1O)C(N)=O [CAP, Capuramycin, reference compound]
IC50 (HPNE; HPNE, 72 h): > 50000 nM

CO[C@H]1[C@@H](O)[C@H](n2ccc(=O)[nH]c2=O)O[C@@H]1[C@@H](O[C@H]1OC(CNCc2ccc(N3CCC(Oc4ccc(OC(F)(F)F)cc4)CC3)cc2)=C[C@H](O)[C@@H]1O)C(N)=O [CPPA, (2R)-2-(((2S,3S,4S)-3,4-Dihydroxy-6-(((4-(4-(4-(trifluoromethoxy)phenoxy)piperidin-1-yl)benzyl)amino)methyl)-3,4-dihydro-2H-pyran-2-yl)oxy)-2-((2S,5R)-5-(2,4-dioxo-3,4-dihydropyrimidin-1(2H)-yl)-4-hydroxy-3-methoxytetrahydrofuran-2-yl)acetamide]
inhibition of all phosphotransferases tested in Table 1 [6]: did not inhibit

CO[C@H]1[C@@H](O)[C@H](n2ccc(=O)[nH]c2=O)O[C@@H]1[C@@H](O[C@H]1OC(C(=O)NCc2ccc(N3CCC(Oc4ccc(OC(F)(F)F)cc4)CC3)cc2)=C[C@H](O)[C@@H]1O)C(N)=O [CPPB, (2S,3S,4S)-2-((1R)-2-Amino-1-((2S,5R)-5-(2,4-dioxo-3,4-dihydropyrimidin-1(2H)-yl)-4-hydroxy-3-methoxytetrahydrofuran-2-yl)-2-oxoethoxy)-3,4-dihydroxy-N-(4-(4-(4-(trifluoromethoxy)phenoxy)piperidin-1-yl)benzyl)-3,4-dihydro-2H-pyran-6-carboxamide]
viability of all pancreatic cancers tested ([1]; MTT assays, 20 μM): remained viable
cytotoxicity against a series of cancer and healthy cell lines ([1]; at 10 μM or higher concentrations): not cytotoxic
antiproliferative activity against L1210, HPNE, and Vero ([1]; at 50 μM): did not show antiproliferative activity
IC50 ([1]; read-out: IC50 growth inhibition of solid cancer cell lines (span)): 15000 to 45000 nM
CA and CB, concentration in combination (PD002 [7]; Table 3 entry 1): 0.10 µM
CA and CB, concentration in combination (PD002 [7]; Table 3 entry 2): 0.10 µM
CA and CB, concentration in combination (PD002 [7]; Table 3 entry 3): 0.20 µM
CA and CB, concentration in combination (PD002 [7]; Table 3 entry 4): 0.20 µM
CA and CB, concentration in combination (PD002 [7]; Table 3 entry 5): 0.20 µM
CA and CB, concentration in combination (PD002 [7]; Table 3 entry 6): 2.0 µM
CA and CB, concentration in combination (PD002 [7]; Table 3 entry 7): 2.0 µM
CA and CB, concentration in combination (PD002 [7]; Table 3 entry 8): 2.0 µM
synergistic effect with paclitaxel against PD002 (PD002 [7]; checkerboard): strong synergistic effects
MIC [2]: 6.25 to 12.5 µg/mL (≈ 7.74 to 15.5 µM)
E-Cadherin expression level of PANC-1 (E-Cadherin; Western blot, 0–2.0 μM): the same expression level
E-Cadherin expression levels of PD002, PANC-1, and HCT-116 (E-Cadherin; immunofluorescence, 0.05–2.0 μM): not changed significantly
DPAGT1 inhibitory activity relative to tunicamycin (DPAGT1 (Human)): ~ 7.5 times
inhibition of cell migration of PD002 (Boyden chamber) (PD002 [8]): inhibited on a higher level
wound-healing rate (PD002 [9]): approximately 20%
phase area confluent of PD002 culture after 72h (PD002 [10]; CPPB 50 μM, same as time 0h, control (PBS) ca. 70%): 10–13%
cell proliferation inhibited at time 72h (PD002 [10]; PD002, CPPB 0.2–20 μM): ca. 20%
cell permeability (PD002 [10]; demonstrated by IncuCyte live cell analyses and immunofluorescence assays): cell-permeable
inhibition of migration of SiHa (SiHa [11]): strongly inhibited migration
Snail expression level in HCT-116 (Snail): not noticeably changed
DPAGT1 expression in pancreatic cancer cell lines (DPAGT1 [12]; 0.2 μM): apparently inhibited
DPAGT1 expression levels of HCT-116 remaining (DPAGT1 [12]; Western blot, CPPB 0.1–20 μM): 20–90%
inhibition of cell migration of HCT-116 (HCT-116 [13]): not inhibited; also recorded: did not inhibit migration
IC50 (HPNE; HPNE, 72 h): > 50000 nM

CO[C@@H]1[C@H](O)[C@@H]([C@@H](O[C@H]2OC(CNCc3ccc(N4CCC(Oc5ccc(OC(F)(F)F)cc5)CC4)cc3)=C[C@H](O)[C@@H]2O)C(N)=O)O[C@H]1n1ccc(=O)[nH]c1=O [I-CPPA, (2R)-2-(((2S,3S,4S)-3,4-Dihydroxy-6-(((4-(4-(4-(trifluoromethoxy)phenoxy)piperidin-1-yl)benzyl)amino)methyl)-3,4-dihydro-2H-pyran-2-yl)oxy)-2-((2S,5R)-5-(2,4-dioxo-3,4-dihydropyrimidin-1(2H)-yl)-3-hydroxy-4-methoxytetrahydrofuran-2-yl)acetamide]
inhibition of all phosphotransferases tested in Table 1 [6]: did not inhibit

CO[C@H]1[C@@H](OC)[C@H](n2ccc(=O)[nH]c2=O)O[C@@H]1[C@@H](O[C@H]1OC(C(=O)N[C@H]2CCCCNC2=O)=C[C@H](O)[C@@H]1O)C(N)=O [OM-CAP, O-Methyl capuramycin]
cytotoxicity against healthy cells (e.g., Vero and HPNE cells) ([1]; at 50 μM): does not show cytotoxicity
IC50 (HPNE; HPNE, 72 h): > 50000 nM
IC50 (MraY/MurX; read-out: IC50 MraY, previously identified, ref [9]): > 50000 nM

CC(=O)O[C@H]1C(=O)[C@@]2(C)[C@H]([C@H](OC(=O)c3ccccc3)[C@]3(O)C[C@H](OC(=O)[C@H](O)[C@@H](NC(=O)c4ccccc4)c4ccccc4)C(C)=C1C3(C)C)[C@]1(OC(C)=O)CO[C@@H]1C[C@@H]2O [Paclitaxel, reference compound]
CA and CB, concentration in combination (PD002 [7]; Table 3 entry 1): 0.63 µM
CA and CB, concentration in combination (PD002 [7]; Table 3 entry 2): 0.16 µM
CA and CB, concentration in combination (PD002 [7]; Table 3 entry 3): 0.0049 µM
CA and CB, concentration in combination (PD002 [7]; Table 3 entry 4): 0.020 µM
CA and CB, concentration in combination (PD002 [7]; Table 3 entry 6): 0.020 µM
IC50 (PD002 [14]; Homo sapiens, PD002, 72 h): 1250 nM

Tunicamycin
IC50 (HCT-116 [15]): 920 nM
IC50 (WecA (E. coli)): 150 nM
IC50 (Capan-1): 1500 nM
IC50 (KB): 2500 nM
IC50 (AsPC-1): 450 nM
IC50 (DPAGT1 (Human); read-out: IC50 DPAGT1 (Human)): 1500 nM
IC50 (PD002 [14]; MTT assay, 72h): 1500 nM
wound-healing rate (PD002 [9]): 35%
IC50 (WecA): 150 nM
IC50 (DPAGT1 [3]; read-out: IC50 DPAGT1, ref [9],[10]): 1500 nM
IC50 (DLD-1): 1250 nM
IC50 (L1210): 1700 nM
IC50 (Vero): 780 nM
IC50 (SiHa [16]): 920 nM
PD002 killed (DPAGT1 gene): 100%
IC50 [17]: 2900 nM
IC50 (AglH (M. jannaschii)): 13200 nM
IC50 (HPNE; MTT assay, 72h, normal pancreatic ductal cell): 7500 nM
IC50 (PANC-1): 1500 nM
LD50 ([5]; mice, IP, ref [18],[19]): 2.0 mg/kg
LD100 ([5]; mice, IP, ref [18],[19]): 3.5 mg/kg
LD50 ([5]; mouse, ref [10],[18]): 2.0 mg/kg
IC50 (MraY/MurX; read-out: IC50 MraY/MurX, ref [9],[10]): 2900 nM
